Data as given in patent publication US20220288154A1, “GNRH ANTAGONISTS FOR THE TREATMENT OF ESTROGEN-DEPENDENT DISORDERS” (ObsEva S.A., priority 2019, published 2022).
Marks after values point to notes of the source that are not given here.

Tests used:
[1] = target: T1, human GnRH receptor (Homo sapiens, UniProt P30968); assay: Affinity for human GnRH receptor; assay type: binding
T1 sequence (P30968 1-328): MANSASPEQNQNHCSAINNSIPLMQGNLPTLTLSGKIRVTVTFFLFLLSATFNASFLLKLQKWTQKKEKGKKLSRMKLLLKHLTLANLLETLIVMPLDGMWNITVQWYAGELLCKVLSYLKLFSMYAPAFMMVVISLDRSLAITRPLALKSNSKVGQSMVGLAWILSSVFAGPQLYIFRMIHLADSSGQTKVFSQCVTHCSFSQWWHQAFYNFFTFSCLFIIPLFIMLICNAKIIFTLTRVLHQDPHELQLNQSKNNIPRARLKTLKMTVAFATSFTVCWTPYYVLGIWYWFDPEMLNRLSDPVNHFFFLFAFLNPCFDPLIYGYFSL

[2] = system: human female patients diagnosed as having uterine fibroids; assay: PRIMROSE 1 Phase 3 placebo-controlled trial in uterine fibroids; assay type: in vivo
Method: (§1) The PRIMROSE 1 study, conducted in the United States, enrolled 526 women. The PRIMROSE 2 study, conducted in the United States and Europe, enrolled 535 women. Patients were randomized to one of several cohorts: […] […] Pain levels were measured using a Verbal Rating Score (VRS), as described herein. Patients were also assessed to determine the proportion that reported an improvement in quality of life using the Uterine Fibroids Symptoms and Health-Related Quality of Life questionnaire.

[3] = system: human female patients diagnosed as having uterine fibroids; assay: PRIMROSE 2 Phase 3 placebo-controlled trial in uterine fibroids; assay type: in vivo; conditions: for patients achieving menstrual blood loss ≤80 mL and ≥50% reduction from baseline: 52 weeks
Method: as §1

[4] = PRIMROSE 1 and PRIMROSE 2: lumbar spine bone mineral density; assay type: in vivo, human; conditions: 100 mg/day or 200 mg/day + ABT; 24 and 52 weeks
Method: To evaluate the safety of compound (VI), patients' bone mineral density levels were measured at baseline and at various timepoints during the studies.

[5] = system: human female patients diagnosed as having endometriosis; assay: Phase 2b placebo-controlled trial in endometriosis: endometriosis-associated pain (daily electronic diary); assay type: in vivo; conditions: for Dyspareunia Mean (SD) Change from baseline (CFB): 0-3 VRS score; for Dyschezia Mean (SD) CFB: 0-10 NRS score; for Overall Pelvic Pain Responder Rate (VRS score reduction of >30% from baseline): after 52 weeks
Method: This example describes the results of a Phase 2b, double-blind, randomized, placebo-controlled, multicenter, human clinical trial undertaken to evaluate the efficacy of a GnRH antagonist represented by formula (VI) in a series of patients suffering from an estrogen-dependent disease. In this trial, a series of human female patients diagnosed as having endometriosis were administered the choline salt of 3-[2-fluoro-5-(2,3-difluoro-6-methoxybenzyloxy)4-methoxyphenyl]-2,4-dioxo-1,2,3,4-tetrahydrothieno[3,4d]pyrimidine-5-carboxylic acid periodically over the course of a 52-week treatment period. After 52 weeks of treatment, the patients were monitored for severity of disease symptoms and bone mineral density.
Participants were women aged 18 to 45 years with surgically confirmed endometriosis and moderate to severe EAP. Women with a history of osteoporosis or other metabolic bone disease were excluded. Certain subjects completing an initial 24-week treatment period were invited to continue in a treatment extension phase, resulting in a total of up to 52 weeks of treatment. Subjects that completed 52 weeks of treatment constituted the treatment extension analysis set (TEAS) of patients.
Patients were randomized to either (i) 50 mg/day, 75, mg/day, 100 mg/day, or 200 mg/day of 3-[2-fluoro-5-(2,3-difluoro-6-methoxybenzyloxy)4-methoxyphenyl]-2,4-dioxo-1,2,3,4-tetrahydrothieno[3,4d]pyrimidine-5-carboxylic acid, administered as a choline salt, or (ii) matching placebo. Patients assigned to the placebo cohort were switched to 100 mg/day of 3-[2-fluoro-5-(2,3-difluoro-6-methoxybenzyloxy)4-methoxyphenyl]-2,4-dioxo-1,2,3,4-tetrahydrothieno[3,4d]pyrimidine-5-carboxylic acid at week 12.
Patients that received 75 mg/day of compound (VI) were divided into two groups: those that received a fixed dose (FD) of compound (VI) at 75 mg/day throughout the 52-week treatment period, and those that received a titrated dose (TD) of 75 mg/day of compound (VI) for the first 12 weeks of the treatment period, followed by a daily dose of either 50 mg, 75 mg, or 100 mg of the compound depending on each patient's serum E2 concentration after 4 weeks or 8 weeks of treatment. Dosages from week 12 onward for patients in the 75 mg/day TD cohort were determined according to the following schedule:
Patients that were treated with 200 mg/day of the compound at the 24-week timepoint in the treatment period were switched to 100 mg/day for the final […] of the study.
EAP was assessed using questionnaires in a daily electronic diary. Mean 28-day scores for pelvic pain were calculated at each month up to 12 months and compared to baseline. Efficacy was assessed as the proportion of patients who had at least 30% reduction in OPP at 12 weeks. DYS, NMPP, dyspareunia, and dyschezia were also assessed. […]

[6] = in vivo
Method: BMD of the femoral neck, total hip and lumbar spine was assessed by DXA at baseline and after 12 and 24 weeks of treatment. Reading of DXA scans and monitoring of scan quality, including cross-calibration between sites, was centralized.
All bone mineral density measurements shown below were obtained by assessing bone mineral density at each patient's spine.

[7] = 200 mg/day to week 24, then 100 mg/day, 52 weeks

COc1cc(F)c(-n2c(=O)[nH]c3csc(C(=O)O)c3c2=O)cc1OCc1c(OC)ccc(F)c1F [Compound (VI), 3-[2-fluoro-5-(2,3-difluoro-6-methoxybenzyloxy)4-methoxyphenyl]-2,4-dioxo-1,2,3,4-tetrahydrothieno[3,4d]pyrimidine-5-carboxylic acid]
affinity for human GnRH receptor [1]: 27.4 nM | p value: Improvement in quality of life, Change from baseline in QoL symptom severity score (LS mean) ([2]; 100 mg/day): p = 0.002 | patients achieving menstrual blood loss ≤80 mL and ≥50% reduction from baseline ([2]; 100 mg/day without ABT, 24 weeks): 56.4% | patients achieving menstrual blood loss ≤80 mL and 50% reduction from baseline ([2]; 200 mg/day + ABT (1.0 mg E2 + 0.5 mg NETA), 24 weeks): 75.5% | p value: Improvement in quality of life, Change from baseline in QoL symptom severity score (LS mean) ([2]; 200 mg/day + once-daily ABT): p < 0.001 | p value: Improvement in quality of life, Change from baseline in QoL symptom severity score (LS mean) ([3]; 100 mg/day): p = 0.004 | patients achieving menstrual blood loss ≤80 mL and ≥50% reduction from baseline ([3]; 100 mg/day without ABT): 53.2% | patients achieving menstrual blood loss ≤80 mL and ≥50% reduction from baseline ([3]; 200 mg/day + ABT): 91.6% | p value: Improvement in quality of life, Change from baseline in QoL symptom severity score (LS mean) ([3]; 200 mg/day + once-daily ABT): p < 0.001 | effect on lumbar spine bone mineral density [4]: does not induce a substantial decrease in bone mineral density

COc1cc(F)c(-n2c(=O)[nH]c3csc(C(=O)O)c3c2=O)cc1OCc1c(OC)ccc(F)c1F [GnRH antagonist, 3-[2-fluoro-5-(2,3-difluoro-6-methoxybenzyloxy)4-methoxyphenyl]-2,4-dioxo-1,2,3,4-tetrahydrothieno[3,4d]pyrimidine-5-carboxylic acid]
Dyspareunia Mean (SD) Change from baseline (CFB) ([5]; 50 mg/day, 12 weeks): −0.6 (0.7) | Dyspareunia Mean (SD) Change from baseline (CFB) ([5]; 50 mg/day, 24 weeks): −0.7 (0.8) | Dyspareunia Mean (SD) Change from baseline (CFB) ([5]; 50 mg/day, 52 weeks): −0.5 (1.1) | Dyspareunia Mean (SD) Change from baseline (CFB) ([5]; 75 mg/day, 12 weeks): −0.7 (0.8) | Dyspareunia Mean (SD) Change from baseline (CFB) ([5]; 75 mg/day, 24 weeks): −0.7 (0.8) | Dyspareunia Mean (SD) Change from baseline (CFB) ([5]; 75 mg/day, 52 weeks): −0.9 (0.8) | Dyspareunia Mean (SD) Change from baseline (CFB) ([5]; 100 mg/day, 12 weeks): −0.7 (0.9) | Dyspareunia Mean (SD) Change from baseline (CFB) ([5]; 100 mg/day, 24 weeks): −0.6 (0.8) | Dyspareunia Mean (SD) Change from baseline (CFB) ([5]; 100 mg/day, 52 weeks): −0.7 (1.1) | Dyspareunia Mean (SD) Change from baseline (CFB) [5, 7]: −0.9 (0.9) | Dyspareunia Mean (SD) Change from baseline (CFB) ([5]; 200 mg/day, 12 weeks): −0.8 (1.1)* | Dyspareunia Mean (SD) Change from baseline (CFB) ([5]; 200 mg/day, 24 weeks): −1.0 (1.0) | Dyschezia Mean (SD) CFB ([5]; 50 mg/day, 12 weeks): −1.4 (1.7) | Dyschezia Mean (SD) CFB ([5]; 50 mg/day, 24 weeks): −1.5 (2.1) | Dyschezia Mean (SD) CFB ([5]; 50 mg/day, 52 weeks): −2.3 (1.8) | Dyschezia Mean (SD) CFB ([5]; 75 mg/day, 12 weeks): −2.1 (2.5)* | Dyschezia Mean (SD) CFB ([5]; 75 mg/day, 24 weeks): −2.2 (2.5) | Dyschezia Mean (SD) CFB ([5]; 75 mg/day, 52 weeks): −2.1 (2.9) | Dyschezia Mean (SD) CFB ([5]; 100 mg/day, 12 weeks): −2.0 (1.8)* | Dyschezia Mean (SD) CFB ([5]; 100 mg/day, 24 weeks): −2.0 (2.3) | Dyschezia Mean (SD) CFB ([5]; 100 mg/day, 52 weeks): −2.9 (3.1) | Dyschezia Mean (SD) CFB [5, 7]: −2.6 (2.7) | Dyschezia Mean (SD) CFB ([5]; 200 mg/day, 12 weeks): −1.7 (2.3)* | Dyschezia Mean (SD) CFB ([5]; 200 mg/day, 24 weeks): −2.5 (2.6) | % responders DYS (dysmenorrhea) ([5]; 50 mg/day, 12 weeks): 43.3% | % responders NMPP (non-menstrual pelvic pain) ([5]; 50 mg/day, 12 weeks): 46.2% | % responders OPP (overall pelvic pain) ([5]; 50 mg/day, 12 weeks): 49.4% | % responders DYS (dysmenorrhea) ([5]; 50 mg/day, 24 weeks): 47.5% | % responders NMPP (non-menstrual pelvic pain) ([5]; 50 mg/day, 24 weeks): 50% | % responders OPP (overall pelvic pain) ([5]; 50 mg/day, 24 weeks): 52.5% | % responders DYS (dysmenorrhea) ([5]; 50 mg/day, 52 weeks): 50% | % responders NMPP (non-menstrual pelvic pain) ([5]; 50 mg/day, 52 weeks): 66.7% | % responders OPP (overall pelvic pain) ([5]; 50 mg/day, 52 weeks): 66.7% | Overall Pelvic Pain Responder Rate (VRS score reduction of >30% from baseline) ([5]; 75 mg once daily): 69.2% | % responders DYS (dysmenorrhea) ([5]; 75 mg/day, 12 weeks): 68.2* % | % responders NMPP (non-menstrual pelvic pain) ([5]; 75 mg/day, 12 weeks): 58.5* % | % responders OPP (overall pelvic pain) ([5]; 75 mg/day, 12 weeks): 61.5* % | % responders DYS (dysmenorrhea) ([5]; 75 mg/day, 24 weeks): 58.3% | % responders NMPP (non-menstrual pelvic pain) ([5]; 75 mg/day, 24 weeks): 72.9% | % responders OPP (overall pelvic pain) ([5]; 75 mg/day, 24 weeks): 70.8% | % responders DYS (dysmenorrhea) ([5]; 75 mg/day, 52 weeks): 69.2% | % responders NMPP (non-menstrual pelvic pain) ([5]; 75 mg/day, 52 weeks): 69.2% | % responders OPP (overall pelvic pain) ([5]; 75 mg/day, 52 weeks): 69.2% | % responders DYS (dysmenorrhea) ([5]; 100 mg/day, 12 weeks): 68.6* % | % responders NMPP (non-menstrual pelvic pain) ([5]; 100 mg/day, 12 weeks): 61.5* % | % responders OPP (overall pelvic pain) ([5]; 100 mg/day, 12 weeks): 56.4* % | % responders DYS (dysmenorrhea) ([5]; 100 mg/day, 24 weeks): 82.1% | % responders NMPP (non-menstrual pelvic pain) ([5]; 100 mg/day, 24 weeks): 64.1% | % responders OPP (overall pelvic pain) ([5]; 100 mg/day, 24 weeks): 66.7% | % responders DYS (dysmenorrhea) ([5]; 100 mg/day, 52 weeks): 69.2% | % responders NMPP (non-menstrual pelvic pain) ([5]; 100 mg/day, 52 weeks): 53.8% | % responders OPP (overall pelvic pain) ([5]; 100 mg/day, 52 weeks): 53.8% | Overall Pelvic Pain Responder Rate (VRS score reduction of >30% from baseline) ([5]; 200 mg once daily): 82.4% | % responders DYS (dysmenorrhea) [5, 7]: 64.7% | % responders NMPP (non-menstrual pelvic pain) [5, 7]: 76.5% | % responders OPP (overall pelvic pain) [5, 7]: 82.4% | % responders DYS (dysmenorrhea) ([5]; 200 mg/day, 12 weeks): 78.9* % | % responders NMPP (non-menstrual pelvic pain) ([5]; 200 mg/day, 12 weeks): 47.7% | % responders OPP (overall pelvic pain) ([5]; 200 mg/day, 12 weeks): 56.3* % | % responders DYS (dysmenorrhea) ([5]; 200 mg/day, 24 weeks): 84.1% | % responders NMPP (non-menstrual pelvic pain) ([5]; 200 mg/day, 24 weeks): 72.7% | % responders OPP (overall pelvic pain) ([5]; 200 mg/day, 24 weeks): 77.3% | average bone mineral density losses [6]: less than 5%
